According to patent US20240277698A1, “METHODS OF USING ALDOSTERONE SYNTHASE INHIBITORS” (CINCOR PHARMA, INC., priority 2021, published 2024):

Assays:
[1] = Renal impairment study, single 10 mg dose: pharmacokinetics; assay type: in vivo, human; details: for geometric mean ratio AUC(0-inf) versus control group / geometric mean ratio AUC(0-last) versus control group / geometric mean ratio Cmax versus control group: single 10 mg dose
Description: Of particular relevance to study subjects who will be enrolled in this trial is the investigation of the pharmacokinetics of (R)-compound 1 in individuals with varying degrees of renal impairment. The PK profiles of (R)-compound 1 and its primary metabolite following administration of a single 10 mg dose in individuals with renal impairment were qualitatively and quantitatively similar to those measured in healthy subjects. […] There were no noteworthy increases in systemic exposure or decrease in clearance in individuals with impaired renal function. Dose adjustment of (R)-compound 1 based on renal function was therefore not necessary.
One subject with end stage disease experienced an unrelated SAE of metabolic encephalopathy and a moderate unrelated adverse event (AE) of tremor. One control subject experienced a mild AE of diarrhea, which was considered to be related to study drug by the Investigator. […] It is not necessary to dose adjust (R)-compound 1 for patients with renal impairment.
There was no substantial impact of renal impairment on the PK of (R)-compound 1 based on pair-wise comparisons and no strong or nonlinear relationship between estimated GFR and PK parameters was observed. Findings for the primary metabolite of (R)-compound 1 was similar to those for parent with no clinically meaningful differences observed across groups. The percent of the dose excreted renally was approximately 12% in the control group and the moderate to severe renal impairment group. […] Based on the results of this study, dose adjustment of (R)-compound 1 in renally impaired individuals is not considered necessary.

[2] = MAD study: predose plasma adrenocorticotropic hormone (ACTH); assay type: in vivo, human
Description: Table 10 presents mean predose plasma ACTH concentrations over time and change and percent change from Day 1 to Day 10 predose concentrations by treatment group for the PD Population.

[3] = SAD study Part 2: adverse events under low/normal salt diet and 3 mg IV dose; assay type: in vivo
Description: There were no dose-related increases in the incidence of AEs (Table 15). No severe AEs, SAEs, withdrawals due to AEs, or deaths were reported. A larger proportion of subjects reported AEs during the 3 mg IV dose (75%) compared to any of the oral doses (maximum of 66.7% with 3 mg during the low salt diet and with 10 mg during both the low and normal salt diet). Overall, the most frequently reported AEs were nasopharyngitis, asthenia, and dizziness. AEs reported by >1 subject at any dose level and with either salt diet were asthenia (2 subjects [33.3%] with 10 mg low salt diet, 2 subjects [33.3%] with placebo low salt diet), nasopharyngitis (3 subjects [37.5%] with 3 mg IV, 2 subjects [33.3%] with 10 mg low salt diet), dizziness (2 subjects [33.3%] with 3 mg low salt diet) and gingival pain (2 subjects [33.3%] with 10 mg low salt diet). Only 1 AE (dizziness) reported by a subject receiving 10 mg (R)-compound 1 under normal salt diet conditions was considered related to the study drug. One case of fractured coccyx and one case of concussion (both reported for subjects who received the IV dose) were moderate in intensity and all other AEs were mild in intensity. […]

[4] = moderate to severe renal impairment group

SMILES: CCC(=O)N[C@@H]1CCCc2c(-c3ccc4c(c3)CCC(=O)N4C)cncc21 [(R)-Compound 1, (R)—N-(4-(1-methyl-2-oxo-1,2,3,4-tetrahydroquinolin-6-yl)-5,6,7,8-tetrahydroisoquinolin-8-yl)propionamide]
- percent of the dose excreted renally ([1]; control group): approximately 12%
- renal excretion ([1]; kidney failure group): negligible renal excretion
- geometric mean ratio AUC(0-inf) versus control group ([1]; kidney failure group): 0.68
- geometric mean ratio AUC(0-last) versus control group ([1]; kidney failure group): 0.68
- geometric mean ratio Cmax versus control group ([1]; kidney failure group): 0.88
- percent of the dose excreted renally [1, 4]: approximately 12%
- geometric mean ratio AUC(0-inf) versus control group [1, 4]: 1.21
- geometric mean ratio AUC(0-last) versus control group [1, 4]: 1.17
- geometric mean ratio Cmax versus control group [1, 4]: 1.02
- Plasma ACTH, change from Day 1 to Day 10, predose, mean ([2]; 0.5 mg, normal salt diet): -0.15 pmol/L
- Plasma ACTH, percent change from Day 1 to Day 10, predose, mean ([2]; 0.5 mg, normal salt diet): −2.01%
- Plasma ACTH, change from Day 1 to Day 10, predose, mean ([2]; 1.5 mg, normal salt diet): -1.63 pmol/L
- Plasma ACTH, percent change from Day 1 to Day 10, predose, mean ([2]; 1.5 mg, normal salt diet): −24.00%
- Plasma ACTH, change from Day 1 to Day 10, predose, mean ([2]; 2.5 mg, low salt diet): 2.11 pmol/L
- Plasma ACTH, percent change from Day 1 to Day 10, predose, mean ([2]; 2.5 mg, low salt diet): 184.44%
- Plasma ACTH, change from Day 1 to Day 10, predose, mean ([2]; 2.5 mg, normal salt diet): -4.04 pmol/L
- Plasma ACTH, percent change from Day 1 to Day 10, predose, mean ([2]; 2.5 mg, normal salt diet): −35.69%
- Plasma ACTH, change from Day 1 to Day 10, predose, mean ([2]; 5.0 mg, low salt diet): 1.57 pmol/L
- Plasma ACTH, percent change from Day 1 to Day 10, predose, mean ([2]; 5.0 mg, low salt diet): 125.86%
- Predose plasma ACTH, mean ([2]; Day 1, predose, 0.5 mg, normal salt diet): 3.91 pmol/L
- Predose plasma ACTH, mean ([2]; Day 1, predose, 1.5 mg, normal salt diet): 6.30 pmol/L
- Predose plasma ACTH, mean ([2]; Day 1, predose, 2.5 mg, low salt diet): 1.47 pmol/L
- Predose plasma ACTH, mean ([2]; Day 1, predose, 2.5 mg, normal salt diet): 6.40 pmol/L
- Predose plasma ACTH, mean ([2]; Day 1, predose, 5.0 mg, low salt diet): 1.96 pmol/L
- Predose plasma ACTH, mean ([2]; Day 10, predose, 0.5 mg, normal salt diet): 3.76 pmol/L
- Predose plasma ACTH, mean ([2]; Day 10, predose, 1.5 mg, normal salt diet): 4.67 pmol/L
- Predose plasma ACTH, mean ([2]; Day 10, predose, 2.5 mg, low salt diet): 3.59 pmol/L
- Predose plasma ACTH, mean ([2]; Day 10, predose, 2.5 mg, normal salt diet): 2.80 pmol/L
- Predose plasma ACTH, mean ([2]; Day 10, predose, 5.0 mg, low salt diet): 3.52 pmol/L
- ACTH increase compared to placebo ([2]; low salt diet conditions (Cohorts 1 and 2)): somewhat more pronounced
- ACTH ([2]; normal salt diet conditions): apparent dose-dependent decreases
- Any AE, % of subjects ([3]; 1 mg, low salt diet, N = 6): (33.3) %
- Any AE, number of subjects ([3]; 1 mg, low salt diet, N = 6): 2
- Related AE, number of subjects ([3]; 1 mg, low salt diet, N = 6): 0
- Any AE, % of subjects ([3]; 1 mg, normal salt diet, N = 6): (50.0) %
- Any AE, number of subjects ([3]; 1 mg, normal salt diet, N = 6): 3
- Related AE, number of subjects ([3]; 1 mg, normal salt diet, N = 6): 0
- proportion of subjects reporting AEs ([3]; 3 mg IV dose): 75%
- Any AE, % of subjects ([3]; 3 mg IV, N = 8): (75.0) %
- Any AE, number of subjects ([3]; 3 mg IV, N = 8): 6
- Related AE, number of subjects ([3]; 3 mg IV, N = 8): 0
- proportion of subjects reporting AEs, maximum of the oral doses ([3]; 3 mg low salt diet, 10 mg low and normal salt diet): ≤ 66.7%
- Any AE, % of subjects ([3]; 3 mg, low salt diet, N = 6): (66.7) %
- Any AE, number of subjects ([3]; 3 mg, low salt diet, N = 6): 4
- Related AE, number of subjects ([3]; 3 mg, low salt diet, N = 6): 0
- Any AE, % of subjects ([3]; 3 mg, normal salt diet, N = 6): (33.3) %
- Any AE, number of subjects ([3]; 3 mg, normal salt diet, N = 6): 2
- Related AE, number of subjects ([3]; 3 mg, normal salt diet, N = 6): 0
- AEs considered related to the study drug (dizziness) ([3]; 10 mg normal salt diet): 1 AE
- Any AE, % of subjects ([3]; 10 mg, low salt diet, N = 6): (66.7) %
- Any AE, number of subjects ([3]; 10 mg, low salt diet, N = 6): 4
- Related AE, number of subjects ([3]; 10 mg, low salt diet, N = 6): 0
- Any AE, % of subjects ([3]; 10 mg, normal salt diet, N = 6): (66.7) %
- Any AE, number of subjects ([3]; 10 mg, normal salt diet, N = 6): 4
- Related AE, % of subjects ([3]; 10 mg, normal salt diet, N = 6): (16.7) %
- Related AE, number of subjects ([3]; 10 mg, normal salt diet, N = 6): 1
